5 molecules from ChEMBL document CHEMBL5252664, “Orally Active Forms of DMT, 5-MeO-DMT, and Long-Acting MDMA for the Treatment of Neuropsychiatric Disorders” (ACS Med Chem Lett, 2023) can be followed below.

Type in all cases: ADME, organism-based
Details in all cases: in vivo

A short description of series [1]: Tmax in Sprague-Dawley rat at 10 mg/kg, po.
A short description of series [2]: AUC (0 to last) in Sprague-Dawley rat at 10 mg/kg, po. Further details: dose 10 mg/kg, route po.
The nature of series [3]: Half life in Sprague-Dawley rat at 10 mg/kg, po.
The nature of series [4]: Cmax in Sprague-Dawley rat at 10 mg/kg, po. Further details: dose 10 mg/kg, route po.

Take `COc1ccc2c(c1)c(CCN(C)C)cn2C(=O)c1ccccc1`: in series [1], the time to peak (Tmax) worked out at 1 h. The same molecule showed an exposure AUC(0-t) in series [2] of 66.5 ng·h/mL. Moreover, the half-life in series [3] was 10.3 h. This molecule displayed a Cmax in series [4] of 17.7 ng/mL.
Turning to `COc1ccc2c(c1)c(CCN(C)C)cn2C(=O)[C@@H](N)C(C)C.Cl.Cl`, in series [1], the time of peak concentration (Tmax) was determined as 2 h. For the same molecule, the area under the curve AUC(0-t) in series [2] was determined as 155 ng·h/mL. The half-life in series [3] was 5.54 h. The maximum concentration (Cmax) in series [4] is 11.1 ng/mL.
For the molecule `C[C@H](N)C(=O)n1cc(CCN(C)C)c2ccccc21.Cl.Cl`, the Tmax in series [1] is 0.5 h. For the same molecule, in series [2], the AUC(0-t) was determined as 126 ng·h/mL. The same molecule gave a half-life in series [3] of 4.08 h. Further, the peak level in series [4] (Cmax) was 20.2 ng/mL.
Consider `COc1ccc2c(c1)c(CCN(C)C)cn2C(=O)CCCC(C)=O`, for which, in series [1], the Tmax was found to be 1 h. The same molecule gave an exposure AUC(0-t) in series [2] of 362 ng·h/mL. In series [3], this molecule had a half-life of 2.02 h. This molecule also yielded a Cmax in series [4] of 106 ng/mL.
Turning to `CN(C)CCc1cn(C(=O)CN(C)C(=O)[C@H](N)Cc2ccccc2)c2ccccc12.Cl.Cl`, the Tmax in series [1] turned out to be 0.5 h. The area under the curve AUC(0-t) in series [2] was determined as 7.17 ng·h/mL. The molecule further had a half-life in series [3] of 3.31 h. Moreover, the highest level in series [4] (Cmax) was 2.43 ng/mL.

Broadly, the Tmax is the time from dosing to the highest level. For orientation: AUC(0-t) means exposure summed from dosing to a finite time, without extrapolation to infinity. As usually defined, the half-life is how long it takes for the measured level to halve. Read a low half-life as rapid decline. The term Cmax denotes the highest concentration seen after dosing.
